From patent publication US20250282785A1, “PYRROLIDINONE DERIVATIVES AS INHIBITORS OF NF KAPPA B INDUCING KINASE” (priority 2022, published 2025) come the findings set out here.

In assay [1] the target is Recombinant Human NF-Kappab-Inducing Kinase (NIK/MAP3K14) (Homo sapiens, UniProt Q99558). Description: Inhibition of auto-phosphorylation of recombinant human NIK/MAP3K14 (AlphaScreen). Type of assay: biochemical. Conditions: NIK/MAP3K14 auto-phosphorylation, 5 microM ATP, 1 nM enzyme, 2 h at 25° C.; average of values; read-out: Assay 1 IC50. In a few lines: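 AlphaScreen read-out used anti-phospho-IKK Ser176/180 antibody after 2 h, 25 °C incubation of compound, 1 nM GST-NIK and 5 µM ATP (final DMSO 0.7%). Percent inhibition referenced to high (enzyme) and low (no enzyme, no ATP) controls; sigmoidal curve fitting gave IC50.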
Sequence of Recombinant Human NF-Kappab-Inducing Kinase (NIK/MAP3K14) (Q99558 whole entry): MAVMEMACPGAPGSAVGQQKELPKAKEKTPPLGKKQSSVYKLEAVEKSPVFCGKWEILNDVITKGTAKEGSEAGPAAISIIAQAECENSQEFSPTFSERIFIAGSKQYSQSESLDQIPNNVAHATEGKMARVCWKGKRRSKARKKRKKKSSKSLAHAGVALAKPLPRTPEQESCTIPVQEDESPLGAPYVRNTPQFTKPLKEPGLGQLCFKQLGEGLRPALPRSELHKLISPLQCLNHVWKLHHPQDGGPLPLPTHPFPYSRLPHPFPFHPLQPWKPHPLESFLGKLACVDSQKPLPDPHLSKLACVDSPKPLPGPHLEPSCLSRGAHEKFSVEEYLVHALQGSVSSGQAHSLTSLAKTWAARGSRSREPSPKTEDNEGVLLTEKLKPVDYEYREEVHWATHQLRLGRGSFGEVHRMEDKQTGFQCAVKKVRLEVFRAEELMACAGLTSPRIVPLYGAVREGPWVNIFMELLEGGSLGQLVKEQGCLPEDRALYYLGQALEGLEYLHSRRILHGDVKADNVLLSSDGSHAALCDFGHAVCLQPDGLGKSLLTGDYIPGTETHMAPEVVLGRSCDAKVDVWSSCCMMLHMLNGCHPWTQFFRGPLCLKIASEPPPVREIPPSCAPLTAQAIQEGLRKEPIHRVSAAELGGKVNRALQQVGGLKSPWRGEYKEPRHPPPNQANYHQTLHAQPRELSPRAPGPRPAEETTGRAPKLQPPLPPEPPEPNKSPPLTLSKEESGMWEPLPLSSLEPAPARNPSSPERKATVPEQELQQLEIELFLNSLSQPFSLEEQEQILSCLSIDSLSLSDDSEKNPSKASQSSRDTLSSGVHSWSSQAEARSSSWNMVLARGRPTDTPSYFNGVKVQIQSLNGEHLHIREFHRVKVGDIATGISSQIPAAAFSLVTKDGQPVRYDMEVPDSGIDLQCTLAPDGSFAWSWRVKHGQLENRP
Background: Alpha assays give light when donor and acceptor beads are brought close together.

Assay [2] relates to p-IKKα levels in L363 (NIK translocated multiple myeloma) cells. Briefly: Effect of compounds on p-IKKα levels in L363 cells (AlphaLISA SureFire Ultra). It counts as cell-based. Conditions: Homo sapiens, L-363; L363 cells, BAFF stimulated, MG132, 6 h; average of values; read-out: Assay 2 IC50. In a few lines:
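Phospho-IKKα (Ser 176/180) was quantified by AlphaLISA in lysed L363 cells after 6 h compound exposure (0.3% DMSO, 11 points, 1:3) alongside 250 ng/ml BAFF and 10 uM MG132, following overnight BAFF priming in low-serum DMEM. Duplicate curves were scaled between BAFF/DMSO/MG132 and unstimulated DMSO wells, then fitted sigmoidally for IC50.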

For orientation: IC50 means the concentration that inhibits the measured activity by half. Regarding `CN1CC[C@@](O)(c2cc(-c3cccc(-c4ncc(NC5COC5)c(C(N)=O)n4)c3)no2)C1=O` [Example 105, (R)-2-(3-(5-(3-Hydroxy-1-methyl-2-oxopyrrolidin-3-yl)isoxazol-3-yl)phenyl)-5-(oxetan-3-ylamino)pyrimidine-4-carboxamide], the half-maximal inhibitory concentration (IC50) in assay [1] and in assay [2] was under 100 nM throughout.
Turning to `CN1CC[C@@](O)(c2cc(-c3cccc(-c4ccnc(N)c4)c3)no2)C1=O` [Example 53, (R)-3-(3-(3-(2-Aminopyridin-4-yl)phenyl)isoxazol-5-yl)-3-hydroxy-1-methylpyrrolidin-2-one], the results for the IC50 in assay [1] and in assay [2] were 100 to 500 nM and over 501 nM, respectively.
`CN1CC[C@@](O)(c2cc(-c3cccc(-n4nc(C(N)=O)c5cc(-c6ccn(C)n6)ccc54)c3)no2)C1=O` [Example 99, (R)-1-(3-(5-(3-Hydroxy-1-methyl-2-oxopyrrolidin-3-yl)isoxazol-3-yl)phenyl)-5-(1-methyl-1H-pyrazol-3-yl)-1H-indazole-3-carboxamide]: the IC50 in assay [1] and in assay [2] was under 100 nM each time.
On to `CN1CC[C@@](O)(c2cc(-c3cccc(-c4cnc5cnccn45)c3)no2)C1=O` [Example 61, (R)-3-Hydroxy-3-(3-(3-(imidazo[1,2-a]pyrazin-3-yl)phenyl)isoxazol-5-yl)-1-methylpyrrolidin-2-one], for which the values for the IC50 in assay [1] and in assay [2] were 100 to 500 nM and over 501 nM, respectively.
For the molecule `CN1CC[C@@](O)(c2cc(-c3cccc(-n4cc(C(N)=O)c(N)n4)n3)no2)C1=O` [Example 195, (R)-3-Amino-1-(6-(5-(3-Hydroxy-1-methyl-2-oxopyrrolidin-3-yl)isoxazol-3-yl)pyridin-2-yl)-1H-pyrazole-4-carboxamide], the IC50 is under 100 nM in assay [1] and over 501 nM in assay [2].
For the molecule `CN1CC[C@@](O)(c2cc(-c3cccc(-c4nc(C(N)=O)c5ccc(F)cc5n4)c3)on2)C1=O` [Example 160, (R)-7-Fluoro-2-(3-(3-(3-hydroxy-1-methyl-2-oxopyrrolidin-3-yl)isoxazol-5-yl)phenyl)quinazoline-4-carboxamide], the values for the IC50 in assay [1] and in assay [2] were under 100 nM and over 501 nM, respectively.
For `Cc1nc(N)c2nc(-c3cccc(-c4cc([C@]5(O)CCN(C)C5=O)no4)c3)ccc2n1` [Example 3, (R)-3-(5-(3-(4-Amino-2-methylpyrido[3,2-d]pyrimidin-6-yl)phenyl)isoxazol-3-yl)-3-hydroxy-1-methylpyrrolidin-2-one], the IC50 is under 100 nM in assay [1] and over 501 nM in assay [2].
With `CN1CC[C@@](O)(c2cc(-c3cccc(-c4cc(C(N)=O)nc5[nH]ccc45)c3)no2)C1=O` [Example 94, (R)-4-(3-(5-(3-Hydroxy-1-methyl-2-oxopyrrolidin-3-yl)isoxazol-3-yl)phenyl)-1H-pyrrolo[2,3-b]pyridine-6-carboxamide], the IC50 in assay [1] and in assay [2] was over 501 nM in each case.
With `Cc1nc(-c2cc(-c3cc([C@@]4(O)C(=O)N(C)CC4(F)F)on3)cc(F)c2F)nc2c(N)ncnc12` [Example 123, (R)-3-(3-(3-(8-amino-4-methylpyrimido[5,4-d]pyrimidin-2-yl)-4,5-difluorophenyl)isoxazol-5-yl)-4,4-difluoro-3-hydroxy-1-methylpyrrolidin-2-one], the values for the IC50 in assay [1] and in assay [2] were under 100 nM and 100 to 500 nM, respectively.
Taken in the same sequence, the figures for `CN1CC[C@@](O)(c2cc(-c3cccc(-c4cc(C(N)=O)ccn4)n3)no2)C1=O` [Example 198, (R)-6′-(5-(3-Hydroxy-1-methyl-2-oxopyrrolidin-3-yl)isoxazol-3-yl)-[2,2′-bipyridine]-4-carboxamide] were 100 to 500 nM and over 501 nM.
For `CN1CC[C@](O)(c2cn(-c3cccc(-c4cccc(C(N)=O)n4)c3)nn2)C1=O` [Example 42, (S)-6-(3-(4-(3-Hydroxy-1-methyl-2-oxopyrrolidin-3-yl)-1H-1,2,3-triazol-1-yl)phenyl)picolinamide], the IC50 in assay [1] and in assay [2] was over 501 nM in each case.
In the case of `CCc1c[nH]c2ncnc(-c3cccc(-c4cc([C@]5(O)CCN(C)C5=O)on4)c3)c12` [Example 73, (R)-3-(3-(3-(5-Ethyl-7H-pyrrolo[2,3-d]pyrimidin-4-yl)phenyl)isoxazol-5-yl)-3-hydroxy-1-methylpyrrolidin-2-one], the IC50 in assay [1] and in assay [2] was over 501 nM each time.
In the case of `CN1CC[C@@](O)(c2cc(-c3cccc(-c4cc5c[nH]nc5cn4)c3)no2)C1=O` [Example 75, (R)-3-(3-(3-(2H-pyrazolo[3,4-c]pyridin-5-yl)phenyl)isoxazol-5-yl)-3-hydroxy-1-methylpyrrolidin-2-one], the IC50 is 100 to 500 nM in assay [1] and over 501 nM in assay [2].
As for `CCn1cnc2c(C(N)=O)nc(-c3cccc(-c4cc([C@]5(O)CCN(C)C5=O)on4)c3)cc21` [Example 90, (R)-1-Ethyl-6-(3-(5-(3-hydroxy-1-methyl-2-oxopyrrolidin-3-yl)isoxazol-3-yl)phenyl)-1H-imidazo[4,5-c]pyridine-4-carboxamide], the IC50 in assay [1] was 100 to 500 nM; in assay [2], over 501 nM.
`CN1CC[C@@](O)(c2cc(-c3cccc(-c4ncc(N)c(C(=O)N[C@H]5CCOC5)n4)c3)no2)C1=O` [Example 126, 5-Amino-2-(3-(5-((R)-3-hydroxy-1-methyl-2-oxopyrrolidin-3-yl)isoxazol-3-yl)phenyl)-N—((S)-tetrahydrofuran-3-yl)pyrimidine-4-carboxamide]: the IC50 was under 100 nM in assay [1] and over 501 nM in assay [2].
Taken in the same sequence, the figures for `CN1CC[C@@](O)(c2cc(-c3ccnc(-n4nc(C(N)=O)c5ccccc54)c3)no2)C1=O` [Example 22, (R)-1-(4-(5-(3-Hydroxy-1-methyl-2-oxopyrrolidin-3-yl)isoxazol-3-yl)pyridin-2-yl)-1H-indazole-3-carboxamide] were under 100 nM and under 100 nM.
Take `CN1CC[C@@](O)(c2cc(-c3cccc(-c4ncc(NC5CC5)c(C(N)=O)n4)c3)no2)C1=O` [Example 111, (R)-5-(Cyclopropylamino)-2-(3-(5-(3-hydroxy-1-methyl-2-oxopyrrolidin-3-yl)isoxazol-3-yl)phenyl)pyrimidine-4-carboxamide]: the IC50 in assay [1] and in assay [2] was under 100 nM each time.
`Cc1ccc(-c2cc([C@]3(O)CCN(C)C3=O)no2)cc1-c1nc2c(N)ncnc2s1` [Example 175, (R)-3-(5-(3-(7-Aminothiazolo[5,4-d]pyrimidin-2-yl)-4-methylphenyl)isoxazol-3-yl)-3-hydroxy-1-methylpyrrolidin-2-one]: the IC50 was under 100 nM in assay [1] and over 501 nM in assay [2].
For the molecule `[2H]c1nc(N)c2nc(-c3cccc(-c4cc([C@]5(O)CCN(C)C5=O)n[nH]4)c3)ccc2n1` (single isomer, unassigned) [Example 38], the IC50 is under 100 nM in assay [1] and over 501 nM in assay [2].
For the molecule `CN1CC[C@@](O)(c2cc(-c3cccc(-c4cccc(C(N)=O)c4)c3)no2)C1=O` [Example 157, (R)-3′-(5-(3-Hydroxy-1-methyl-2-oxopyrrolidin-3-yl)isoxazol-3-yl)-[1,1′-biphenyl]-3-carboxamide], the IC50 in assay [1] and in assay [2] was over 501 nM in each case.
Turning to `CN1CC[C@@](O)(c2cc(-c3cccc(-c4cc(-c5cncs5)cc(C(N)=O)n4)c3)no2)C1=O` [Example 184, (R)-6-(3-(5-(3-Hydroxy-1-methyl-2-oxopyrrolidin-3-yl)isoxazol-3-yl)phenyl)-4-(thiazol-5-yl)picolinamide], the IC50 in assay [1] is under 100 nM; in assay [2], 100 to 500 nM.
Regarding `Cc1ncc2cc(-c3cccc(-c4cc([C@]5(O)CCN(C)C5=O)on4)c3)ccn12` [Example 60, (R)-3-hydroxy-1-methyl-3-(3-(3-(3-methylimidazo[1,5-a]pyridin-7-yl)phenyl)isoxazol-5-yl)pyrrolidin-2-one], the 50% inhibitory concentration (IC50) in assay [1] and in assay [2] was over 501 nM in each case.
Turning to `CN1CC[C@@](O)(c2cc(-c3cccc(-c4ccc5ncnc(N6CCC6)c5n4)c3)no2)C1=O` [Example 11, (R)-3-(3-(3-(4-(Azetidin-1-yl)pyrido[3,2-d]pyrimidin-6-yl)phenyl)isoxazol-5-yl)-3-hydroxy-1-methylpyrrolidin-2-one], the results for the IC50 in assay [1] and in assay [2] were under 100 nM and over 501 nM, respectively.
In the case of `CN1CC[C@@](O)(c2cc(-c3cccc(-n4nc(C(N)=O)c5cc(C6CC6)ccc54)c3)no2)C1=O` [Example 112, (R)-5-Cyclopropyl-1-(3-(5-(3-hydroxy-1-methyl-2-oxopyrrolidin-3-yl)isoxazol-3-yl)phenyl)-1H-indazole-3-carboxamide], the concentration for half-maximal inhibition (IC50) in assay [1] is under 100 nM; in assay [2], 100 to 500 nM.
Taken in the same sequence, the figures for `CN1CC[C@@](O)(c2cc(-c3cccc(-c4cc5c(o4)CCNC5=O)c3)no2)C1=O` [Example 56, (R)-2-(3-(5-(3-hydroxy-1-methyl-2-oxopyrrolidin-3-yl)isoxazol-3-yl)phenyl)-6,7-dihydrofuro[3,2-c]pyridin-4(5H)-one] were over 501 nM and over 501 nM.
In the case of `CN1CC[C@@](O)(c2cc(-c3cccc(-c4cc(C5CC5)c(N)c(C(N)=O)n4)c3)no2)C1=O` [Example 88, (R)-3-Amino-4-cyclopropyl-6-(3-(5-(3-hydroxy-1-methyl-2-oxopyrrolidin-3-yl)isoxazol-3-yl)phenyl)picolinamide], the half-maximal inhibitory concentration (IC50) in assay [1] and in assay [2] was under 100 nM throughout.
